The text below walks through data of ChEMBL document CHEMBL1149223, “Non-nucleoside inhibitors of the hepatitis C virus NS5B polymerase: discovery and preliminary SAR of benzimidazole derivatives” (Bioorg Med Chem Lett, 2004).

The target of experiment [1] is RNA-directed RNA polymerase (Hepacivirus hominis, UniProt O39930). The experiment in a line: Inhibitory activity against NS5B polymerase of hepatitis C virus.
Experiment [2] deals with Genome polyprotein (Human poliovirus 1 Mahoney, UniProt P03300). The experiment can be described thus: Inhibitory activity against polio virus RNA polymerase.
Sequence of Genome polyprotein (P03300 1749-2209 limits assumed): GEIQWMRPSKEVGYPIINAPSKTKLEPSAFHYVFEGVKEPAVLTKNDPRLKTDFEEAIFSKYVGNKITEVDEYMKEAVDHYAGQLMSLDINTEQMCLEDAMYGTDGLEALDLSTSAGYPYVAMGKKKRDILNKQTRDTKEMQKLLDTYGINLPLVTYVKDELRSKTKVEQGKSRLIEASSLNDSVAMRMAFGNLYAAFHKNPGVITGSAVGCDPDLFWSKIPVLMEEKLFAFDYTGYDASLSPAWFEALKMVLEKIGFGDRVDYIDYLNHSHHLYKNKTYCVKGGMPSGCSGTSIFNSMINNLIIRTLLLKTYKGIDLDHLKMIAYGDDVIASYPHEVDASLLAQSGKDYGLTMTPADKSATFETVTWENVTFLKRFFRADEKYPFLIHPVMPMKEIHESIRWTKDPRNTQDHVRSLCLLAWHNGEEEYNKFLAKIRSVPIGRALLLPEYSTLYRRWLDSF
Experiment [3] deals with Hepatitis C virus. The experiment in a line: Inhibitory activity against HCV RNA replication. The format is functional, organism-based, Hepacivirus hominis.
Experiment [4] addresses RNA-directed RNA polymerase (Hepacivirus hominis) (UniProt O39930). The experiment in a line: Inhibitory activity against NS5B polymerase of hepatitis C virus at 7 uM concentration; (Range = 13-30).

Sequence of RNA-directed RNA polymerase (O39930 whole entry): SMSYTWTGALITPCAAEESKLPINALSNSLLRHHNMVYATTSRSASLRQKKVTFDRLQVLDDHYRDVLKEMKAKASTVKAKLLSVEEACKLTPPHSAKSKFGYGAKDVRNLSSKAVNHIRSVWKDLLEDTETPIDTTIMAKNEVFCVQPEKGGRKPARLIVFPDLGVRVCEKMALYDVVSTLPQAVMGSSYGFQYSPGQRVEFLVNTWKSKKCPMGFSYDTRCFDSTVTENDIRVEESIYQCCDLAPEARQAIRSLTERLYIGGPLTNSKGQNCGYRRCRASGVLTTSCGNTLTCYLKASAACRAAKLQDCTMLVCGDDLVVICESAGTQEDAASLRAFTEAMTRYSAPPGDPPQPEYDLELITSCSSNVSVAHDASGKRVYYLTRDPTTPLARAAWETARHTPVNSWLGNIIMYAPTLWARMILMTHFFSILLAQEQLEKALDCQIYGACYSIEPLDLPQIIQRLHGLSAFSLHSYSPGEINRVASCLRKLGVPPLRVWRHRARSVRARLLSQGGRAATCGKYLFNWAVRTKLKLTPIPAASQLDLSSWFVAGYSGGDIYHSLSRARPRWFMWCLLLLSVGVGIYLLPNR
Sequence of RNA-directed RNA polymerase (Hepacivirus hominis) (O39930 1-591): as the sequence (O39930 whole entry) above

As to `Cc1[nH]cnc1-c1nc2cc(C(=O)O)ccc2n1C1CCCCC1`, the half-inhibitory concentration (IC50) – broadly, the concentration needed to halve the response being measured – in experiment [1] was over 30 µM.
`O=C(O)c1ccc2c(c1)nc(C1CCCCC1)n2C1CCCCC1`: in experiment [1], the IC50 is 20 µM.
For `O=C(O)c1ccc2c(c1)nc(-c1ccco1)n2C1CCCCC1`, the IC50 in experiment [1] was 3.7 µM; in experiment [2] it was over 500 µM.
Turning to `CN(C)CCCNC(=O)COc1ccc(-c2nc3cc(C(=O)O)ccc3n2C2CCCCC2)cc1`, the 50% inhibitory concentration (IC50) in experiment [1] was 13 µM.
For `O=C(O)c1ccc2c(c1)nc(-c1ccccn1)n2C1CCCC1`, the concentration for half-maximal inhibition (IC50) in experiment [1] was 12 µM; in experiment [2], over 500 µM.
In turn, `O=C(O)c1ccc2[nH]c(-c3ccccn3)nc2c1` had an IC50 in experiment [1] of over 500 µM.
`O=C(O)c1ccc2c(c1)nc(-c1ccc(C(=O)O)o1)n2C1CCCCC1` yielded an IC50 in experiment [1] of over 30 µM.
Consider `O=C(O)c1ccc2c(c1)nc(-c1ccoc1)n2C1CCCCC1`, for which, in experiment [3], the EC50 (usually the concentration at which the effect is half-maximal) was over 100 µM. Moreover, the 50% inhibitory concentration (IC50) in experiment [1] is 1.6 µM; in experiment [2] it was over 250 µM.
`CCc1ccc(-c2nc3cc(C(=O)O)ccc3n2C2CCCCC2)o1` had a concentration for half-maximal inhibition (IC50) in experiment [1] of over 30 µM.
Molecule `O=C(O)c1ccc2c(c1)nc(-c1ccccn1)n2-c1ccccc1` gave a concentration for half-maximal inhibition (IC50) in experiment [1] of 360 µM.
The same measure, in the same setting: the result for `CCOC(=O)c1nc2cc(C(=O)O)ccc2n1C1CCCCC1` reads 62 µM; that for `O=C(O)c1ccc2c(c1)nc(-c1ccc(C(=O)O)s1)n2C1CCCCC1`, over 30 µM.
`Cc1ccc(-c2nc3cc(C(=O)O)ccc3n2C2CCCCC2)s1`: the concentration for half-maximal inhibition (IC50) in experiment [1] is over 30 µM.
The molecule `CCc1ccc(-c2nc3cc(C(=O)O)ccc3n2C2CCCCC2)s1` yielded an IC50 in experiment [1] of over 30 µM.
Take `O=C(O)c1ccc2c(c1)nc(-c1ccccn1)n2C1CCCCC1`: the EC50 in experiment [3] was over 100 µM. The IC50 in experiment [1] is 4.3 µM; in experiment [2], over 500 µM.
`CCC(CC)n1c(-c2ccccn2)nc2cc(C(=O)O)ccc21` had an IC50 in experiment [1] of 139 µM.
Turning to `O=C(O)c1ccc2c(c1)nc(-c1ccccn1)n2C1CCC1`, the half-inhibitory concentration (IC50) in experiment [1] is 76 µM.
In the case of `O=C(O)c1ccc2c(c1)nc(-c1cccs1)n2C1CCCCC1`, the EC50 in experiment [3] is over 100 µM. Moreover, the IC50 is 3.4 µM in experiment [1] and over 250 µM in experiment [2].
For `CC(C)=Cc1nc2cc(C(=O)O)ccc2n1C1CCCCC1`, the IC50 was 19 µM in experiment [1] and over 500 µM in experiment [2].
On to `O=C(O)c1ccc2c(c1)ncn2C1CCCCC1`, for which, in experiment [1], the 50% inhibitory concentration (IC50) is 186 µM.
For the molecule `O=C(O)c1ccc2c(c1)nc(-c1nccs1)n2C1CCCCC1`, the IC50 is 4.6 µM in experiment [1] and over 500 µM in experiment [2].
In the case of `O=C(O)c1ccc2c(c1)nc(C(=O)c1ccccc1)n2C1CCCCC1`, the IC50 in experiment [1] worked out at 44 µM.
Turning to `O=C(O)c1ccc2c(c1)nc(-c1ccncc1)n2C1CCCCC1`, the IC50 is 17 µM in experiment [1] and over 500 µM in experiment [2].
For `Cn1cccc1-c1nc2cc(C(=O)O)ccc2n1C1CCCCC1`, the results for the IC50 in experiment [1] and in experiment [2] were 1.8 µM and over 500 µM, respectively.
`O=C(O)c1ccc2c(c1)nc(-c1ccc3ccccc3n1)n2C1CCCCC1`: the 50% inhibitory concentration (IC50) in experiment [1] was over 30 µM.
Consider `O=C(O)c1ccc2c(c1)nc(-c1ccccc1)n2C1CCCCC1`, for which the half-maximal inhibitory concentration (IC50) worked out at 8.6 µM in experiment [1] and 250 µM in experiment [2].
On to `O=C(O)c1ccc2c(c1)nc(-c1ncc[nH]1)n2C1CCCCC1`, for which the IC50 in experiment [1] was 10 µM; in experiment [2], over 250 µM.
With `O=C(O)c1ccc2c(c1)nc(-c1ccc[nH]1)n2C1CCCCC1`, the half-maximal inhibitory concentration (IC50) in experiment [1] was 5.9 µM; in experiment [2] it was over 500 µM.
In turn, `CNC(=O)c1ccc2c(c1)nc(-c1ccccn1)n2C1CCCCC1` displayed an IC50 in experiment [1] of 28 µM.
For `COc1ccc(CNC(=O)c2ccc3c(c2)nc(-c2ccccn2)n3C2CCCCC2)cc1OC`, the values for the IC50 in experiment [1] and in experiment [2] were 7.1 µM and over 500 µM, respectively.
Regarding `Cc1cc(-c2nc3cc(C(=O)O)ccc3n2C2CCCCC2)oc1C`, the IC50 in experiment [1] is over 30 µM.
In experiment [1], `O=C(O)c1ccc2c(c1)nc(-c1ccc(CO)o1)n2C1CCCCC1` displayed a half-maximal inhibitory concentration (IC50) of over 30 µM.
In turn, `O=C(O)c1ccc2c(c1)nc(-c1c[nH]nc1-c1ccccc1)n2C1CCCCC1` yielded an IC50 in experiment [1] of over 30 µM.
Turning to `O=C(O)c1ccc2c(c1)nc(-c1cccnc1)n2C1CCCCC1`, the concentration for half-maximal inhibition (IC50) in experiment [1] was 28 µM; in experiment [2] it was over 250 µM.
Turning to `CC(C)n1c(-c2ccccn2)nc2cc(C(=O)O)ccc21`, the IC50 in experiment [1] is 408 µM.
In the case of `Cc1c(-c2nc3cc(C(=O)O)ccc3n2C2CCCCC2)[nH]c2ccccc12`, the IC50 in experiment [1] is over 30 µM.
Take `COc1ccc(CCNC(=O)c2ccc3c(c2)nc(-c2ccccn2)n3C2CCCCC2)cc1OC`: the figures for the IC50 in experiment [1] and in experiment [2] were 12 µM and over 500 µM, respectively.
As to `CC1CCCCC1n1c(-c2ccccn2)nc2cc(C(=O)O)ccc21` (centres undefined), the IC50 was 13 µM in experiment [1] and over 500 µM in experiment [2].
Take `CC1CCC(n2c(-c3ccccn3)nc3cc(C(=O)O)ccc32)CC1` (centres undefined): the IC50 in experiment [1] stood at 50 µM.
With `O=C(O)c1ccc2c(c1)nc(-c1ccsc1)n2C1CCCCC1`, the EC50 in experiment [3] was over 100 µM. The values for the IC50 in experiment [1] and in experiment [2] were 6.33 µM and over 250 µM, respectively.
Molecule `Cc1cc(C)c(-c2nc3cc(C(=O)O)ccc3n2C2CCCCC2)c(C)c1` showed an IC50 in experiment [1] of 120 µM.
On to `COc1ccc(NC(=O)c2ccc3c(c2)nc(-c2ccccn2)n3C2CCCCC2)cc1OC`, for which the inhibition (as a rule, the drop in the measured response relative to a control, in per cent) in experiment [4] stood at 30%.
As for `O=C(O)c1ccc2c(c1)nc(-c1ccc(-c3ccc(Cl)cc3)o1)n2C1CCCCC1`, the IC50 in experiment [1] is over 30 µM.
As for `O=C(O)c1ccc2c(c1)nc(-c1ccccn1)n2C1CCCCCC1`, in experiment [1], inhibition was half-maximal at 49 µM (IC50).
In experiment [1], `Cc1cccc(-c2nc3cc(C(=O)O)ccc3n2C2CCCCC2)n1` displayed a concentration for half-maximal inhibition (IC50) of over 30 µM.
As to `O=C(O)c1ccc2c(c1)nc(-c1cc3ccccc3o1)n2C1CCCCC1`, it took 58 µM to reach half-maximal inhibition in experiment [1] (IC50).
For `O=C(O)c1ccc2c(c1)nc(-c1ccc(Br)o1)n2C1CCCCC1`, in experiment [1], the IC50 was over 30 µM.
`NC(=O)c1ccc2c(c1)nc(-c1ccccn1)n2C1CCCCC1` gave a half-inhibitory concentration (IC50) in experiment [1] of 27 µM.
